This note sets out measurements from patent publication US5767269A, “Processes for the preparation of low-affinity, low molecular weight heparins useful as antithrombotics” (Hamilton Civic Hospitals Research Development Inc., priority 1996, dated 1998).

Test [1] concerns surface-bound thrombin. Put plainly: Extracorporeal recirculation circuit: clotting of the filter in recalcified human whole blood. As to conditions: concentrations which prolong the thrombin clotting time to over 500 seconds (10 to 20 U/ml). The method, then:
The circuit consists of Tygon tubing (3/16"×1/16") connected to a 40 micron transfusion filter (Pall SQ40S). The system includes 3-way stopcocks for blood sampling. A surgical pressure transducer connected to a pressure recorder (Hewlett-Packard) is connected in line with the filter so that clotting of the filter causes a steady increase in pressure. Citrated whole blood taken from normal, healthy volunteers is used. The circuit is filled with 50 ml of whole blood placed in a reservoir and kept in a waterbath maintained at 37° C. The anticoagulant to be tested is added to the circuit, clotting is initiated by recalcification (0.8 ml of 1.0M CaCl2), and the blood is recirculated at a constant flow rate through the thrombogenic surface using a roller head pump (Cole-Parmer MFLX modular drive with a large F/6 roll head cartridge). Thrombosis of the filter is monitored by a change in pressure in a gauge inserted into the circuit, proximal to the filter. […]
The inactivation of surface-bound thrombin and fluid-phase thrombin can be measured simultaneously using this system. More particularly, inactivation of surface-bound thrombin is quantified by recording the delay in clotting of the circuit. […] Inactivation of fluid phase thrombin is quantified by recording the thrombin clotting time of plasma prepared from blood removed from the circuit just before recalcification.

Test [2] has as its system fluid-phase thrombin. As to the kind of experiment: Thrombin clotting time of plasma from blood of the extracorporeal circuit. In kind it is biochemical, human. The source says:
The inactivation of surface-bound thrombin and fluid-phase thrombin can be measured simultaneously using this system. More particularly, inactivation of surface-bound thrombin is quantified by recording the delay in clotting of the circuit. This delay is contributed to, albeit to a lesser extent, by the inactivating effect of the anticoagulant on fluid phase thrombin, whose generation is potentiated by the clot-bound thrombin. Inactivation of fluid phase thrombin is quantified by recording the thrombin clotting time of plasma prepared from blood removed from the circuit just before recalcification.

With Hirudin, the “prevention of thrombosis in the circuit compared with LA-LMWH” value in test [1] is recorded as “much less effective at preventing thrombosis in the circuit”. The TCT in test [2] (10 U/mL (Table 3)) and in test [2] (20 U/ml (Table 3)) was greater than 500 s each time.
